Laboratory results: publication PMC12332667, “Role of Structural Modifications in Peptidomimetic Compounds as Potential Antimicrobial Agents against Staphylococcus aureus and Streptococcus pyogenes: Balancing Bioavailability, Safety, and Antimicrobial Activity” (ACS Omega, 2025)
Like-named read-outs stand apart in the source and are kept apart here. Residues, ends and D or L forms follow the SMILES beside them.

How the values were obtained:
[1] = system: K. pneumoniae ATCC 700603; assay: MIC/MBC broth microdilution, K. pneumoniae; assay type: cell-based
How it was run: (§1)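 BHI broth microdilution (NCCLS); ~10^5 CFU/mL; 37 °C, 18 h. MIC = lowest conc., no visible growth (≥90% vs untreated). MBC = ≤3 colonies, ≥99.9% kill. Water/DMSO/EtOH solvent controls; technical triplicate ×3 biological repeats.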

[2] = system: P. vulgaris ATCC 6896; assay: MIC/MBC broth microdilution, P. vulgaris; assay type: cell-based, Proteus vulgaris
How it was run: as §1

[3] = system: primary human keratinocytes; design: method as in PMID 28110818; settings: concentrations up to 50 μg/mL; reference number not given, probably ref 22; cited from earlier work
[4] = system: S. pyogenes ATCC 19615; assay: MIC/MBC broth microdilution, S. pyogenes; assay type: cell-based, Streptococcus pyogenes
How it was run: as §1

[5] = system: S. agalactiae ATCC 27956; assay: MIC/MBC broth microdilution, S. agalactiae; assay type: cell-based, Streptococcus agalactiae; settings: Streptococcus agalactiae, ATCC27956, S. agalactiae; for MBC: read-out: MBC; for MIC: read-out: MIC
How it was run: as §1

[6] = system: P. aeruginosa ATCC 10145; assay: MIC/MBC broth microdilution, P. aeruginosa; assay type: cell-based
How it was run: as §1

[7] = system: E. coli ATCC 25922; assay: MIC/MBC broth microdilution, E. coli; assay type: cell-based, Escherichia coli
How it was run: as §1

[8] = system: S. intemrdius c.i.; assay: MIC/MBC broth microdilution, S. intermedius; assay type: cell-based, Staphylococcus intermedius
How it was run: as §1

[9] = system: E. faecalis c.i.; assay: MIC/MBC broth microdilution, E. faecalis; assay type: cell-based, Enterococcus faecalis
How it was run: as §1

[10] = system: S. mutans c.i.; assay: MIC/MBC broth microdilution, S. mutans; assay type: cell-based, Streptococcus mutans
How it was run: as §1

[11] = system: S. aureus ATCC 43300; assay: MIC/MBC broth microdilution, S. aureus; assay type: cell-based, Staphylococcus aureus; settings: S. aureus
[12] = system: S. schleiferi c.i.; assay: MIC/MBC broth microdilution, S. schleiferi; assay type: cell-based, Staphylococcus schleiferi
How it was run: as §1

[13] = system: S. cohnii c.i.; assay: MIC/MBC broth microdilution, S. cohnii; assay type: cell-based, Staphylococcus cohnii; settings: for MIC: read-out: MIC
How it was run: as §1

[14] = system: immortalized human HaCaT keratinocytes; assay: XTT cell proliferation assay, keratinocytes; assay type: cell-based
How it was run: (§2)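 Proliferation was read as XTT absorbance at 490 nm after 4 h of reagent incubation, following 48 or 72 h of peptide exposure in serum-free HG-DMEM (37 °C, 5% CO2). The 72 h arm included a half-medium change with second peptide dose at 48 h. Significance by Mann–Whitney U, p ≤ 0.05.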

[15] = system: immortalized human keratinocytes (HaCaT); assay: LDH cytotoxicity test, keratinocytes; assay type: cell-based; settings: LDH, 48 h
How it was run: (§3)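 Cytotoxicity as LDH release after 48 h serum-free treatment (50, 100, 150 μg/mL peptidomimetics) of 46BR.1N fibroblasts or HaCaT keratinocytes seeded at 5000 per well. Absorbance 450 nm; untreated set as 0% and Triton X-100 1% as maximal release; Mann–Whitney U test, p ≤ 0.05.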

[16] = system: fibroblasts (46BR.1N); assay: LDH cytotoxicity test, fibroblasts; assay type: cell-based; settings: LDH, 48 h
How it was run: as §3

[17] = system: human dermal fibroblast cell line (46BR.1N); assay: XTT cell proliferation assay, fibroblasts; assay type: cell-based
How it was run: as §2

[18] = Stability / presence in human plasma; assay type: in vitro ADME; settings: 24 h incubation at 37 °C
Method: Blood was drawn from healthy volunteers, and lithium/heparin holding tubes were used to remove the clot by centrifugation. The plasma was aliquoted in sterile conditions and incubated with the desired compounds for 24 h at 37 °C. The samples were prepared under sterile conditions following the previously described protocol. The samples were collected at six time points (0, 1, 2, 3, 6, and 24 h) for determining stability in water solutions, and time points of 0, 10, 20, 30, 40, 50, and 60 min, as well as of 2, 3, 6, and 24 h, for determining stability in human plasma. The analysis was performed by HPLC using a Kromasil C8 column (5 μm, 90 Å, 1.0 mm × 250 mm) monitored by a PDA or ELDS-LT II detector. For quantification, peak areas were compared to a calibration curve calculated by Shimadzu LCsolution Software (Kyoto, Japan). Graphs were prepared in GraphPad Prism (Boston, USA).

[19] = cited from earlier work
[20] = S. pyogenes, water additive EtOH
[21] = Staphylococcus intermedius, H2O
[22] = Staphylococcus intermedius, water additive DMSO
[23] = Staphylococcus intermedius, water additive EtOH
[24] = A-196 0.01–10 μg/mL, A-219 above 0.1 μg/mL, A-213 lower concentrations
[25] = up to 150 μg/mL, A-193 and A-179 after 48 h

CC(C)C[C@H](NC(=O)[C@H](CCCNC(=N)N)NC(=O)OCc1ccccc1)C(=O)N[C@H](CNC(=O)/C=C/c1ccccc1)C(C)C [Compound A-20]
8 µg/mL: MIC ([4]; S. pyogenes, H2O) | MIC [4, 20] | MBC ([4]; Streptococcus pyogenes, ATCC19615, S. pyogenes, water additive DMSO, read-out: MBC) | MIC ([4]; Streptococcus pyogenes, ATCC19615, S. pyogenes, water additive DMSO, read-out: MIC) | MBC ([12]; Staphylococcus schleiferi, water additive DMSO, read-out: MBC) | MIC ([12]; Staphylococcus schleiferi, water additive DMSO, read-out: MIC)
32 µg/mL: MIC ([5]; water additive DMSO) | MIC [8, 21] | MBC [8, 22] | MIC [8, 23] | MBC ([11]; water additive DMSO) | MBC ([11]; water additive EtOH) | MBC ([11]; Staphylococcus aureus, ATCC43300, H2O, read-out: MBC)
128 µg/mL: MIC ([5]; H2O) | MBC ([5]; water additive EtOH) | MIC ([9]; Enterococcus faecalis, H2O, read-out: MIC) | MIC ([13]; Staphylococcus cohnii, H2O)
16 µg/mL: MBC ([4]; Streptococcus pyogenes, ATCC19615, S. pyogenes, H2O, read-out: MBC) | MBC ([4]; Streptococcus pyogenes, ATCC19615, S. pyogenes, water additive EtOH, read-out: MBC) | MIC [8, 22] | MIC ([10]; Streptococcus mutans, H2O, read-out: MIC) | MIC ([10]; water additive DMSO) | MIC ([10]; water additive EtOH) | MIC ([11]; water additive DMSO) | MIC ([11]; water additive EtOH) | MIC ([11]; Staphylococcus aureus, ATCC43300, H2O, read-out: MIC) | MBC ([12]; Staphylococcus schleiferi, H2O, read-out: MBC) | MIC ([12]; Staphylococcus schleiferi, H2O, read-out: MIC) | MBC ([12]; Staphylococcus schleiferi, water additive EtOH, read-out: MBC) | MIC ([12]; Staphylococcus schleiferi, water additive EtOH, read-out: MIC)
> 512 µg/mL: MIC ([1]; Klebsiella pneumoniae, ATCC700603, H2O, read-out: MIC) | MIC ([1]; water additive DMSO) | MIC ([1]; water additive EtOH) | MIC ([2]; Proteus vulgaris, ATCC6896, H2O, read-out: MIC) | MIC ([2]; water additive DMSO) | MIC ([2]; water additive EtOH) | MIC ([6]; Pseudomonas aeruginosa, ATCC10145, H2O, read-out: MIC) | MIC ([6]; water additive DMSO) | MIC ([6]; water additive EtOH)
64 µg/mL: MBC ([5]; water additive DMSO) | MIC ([5]; water additive EtOH) | MBC [8, 21] | MBC [8, 23] | MBC ([13]; Staphylococcus cohnii, H2O, read-out: MBC) | MIC ([13]; Staphylococcus cohnii, water additive DMSO) | MIC ([13]; Staphylococcus cohnii, water additive EtOH)
no impact on the proliferation: impact on proliferation [3]
256 µg/mL: MBC ([5]; H2O) | MIC ([7]; Escherichia coli, ATCC25922, H2O, read-out: MIC) | MIC ([7]; water additive DMSO) | MIC ([7]; water additive EtOH) | MBC ([9]; Enterococcus faecalis, H2O, read-out: MBC) | MBC ([9]; water additive DMSO) | MBC ([9]; water additive EtOH)
512 µg/mL: MBC ([7]; Escherichia coli, ATCC25922, H2O, read-out: MBC) | MBC ([7]; water additive DMSO) | MBC ([7]; water additive EtOH)

CC(C)C[C@H](NC(=O)[C@H](CCCNC(=N)N)NC(=O)OCc1ccccc1)C(=O)N[C@H](C(=O)NCCc1ccccc1)C(C)C [Compound A-196] (HELM PEPTIDE1{[O=C(OCc1ccccc1)[*:2]].R.L.V.[c1ccc(CCN[*:1])cc1]}$$$$V2.0)
150 µg/mL: concentration at which cytotoxic effect starts [15] | concentration at which cytotoxic effect starts [16]
32 µg/mL: MIC ([8]; H2O) | MIC ([10]; water additive DMSO) | MBC ([12]; water additive EtOH)
5–20%: pro-proliferative effect above control [14, 24] | pro-proliferative effect above control [17, 24]
85–90%: present in human plasma [18]
16 µg/mL: MBC ([12]; H2O) | MIC ([12]; H2O) | MBC ([12]; water additive DMSO) | MIC ([12]; water additive DMSO) | MIC ([12]; water additive EtOH)
> 512 µg/mL: MIC ([1]; H2O) | MIC ([1]; water additive DMSO) | MIC ([1]; water additive EtOH) | MIC ([2]; H2O) | MIC ([2]; water additive DMSO) | MIC ([2]; water additive EtOH) | MIC ([6]; H2O) | MIC ([6]; water additive DMSO) | MIC ([6]; water additive EtOH) | MIC ([7]; H2O) | MIC ([7]; water additive DMSO) | MIC ([7]; water additive EtOH) | MIC ([9]; H2O) | MIC ([9]; water additive DMSO) | MBC ([9]; water additive EtOH)
up to 50%: antiproliferative effect (decrease vs control) [14, 25] | antiproliferative effect (decrease vs control) [17, 25]
256 µg/mL: MBC ([4]; S. pyogenes, water additive DMSO) | MBC [4, 20] | MBC ([10]; H2O) | MBC ([11]; H2O) | MBC ([11]; water additive DMSO) | MBC ([13]; water additive DMSO) | MBC ([13]; water additive EtOH)
512 µg/mL: MIC ([9]; water additive EtOH)

CNC(C)C1CCC(N)C(OC2C(N)CC(N)C(OC3OCC(C)(O)C(NC)C3O)C2O)O1 (stereo not shown) [gentamicin]
−0.699 to −0.432 log L/kg: VD values ([19]; in vivo)

CN[C@H](CC(C)C)C(=O)N[C@H]1C(=O)N[C@@H](CC(N)=O)C(=O)N[C@H]2C(=O)N[C@H]3C(=O)N[C@H](C(=O)N[C@H](C(=O)O)c4cc(O)cc(O)c4-c4cc3ccc4O)[C@H](O)c3ccc(c(Cl)c3)Oc3cc2cc(c3O[C@@H]2O[C@H](CO)[C@@H](O)[C@H](O)[C@H]2O[C@H]2C[C@](C)(N)[C@H](O)[C@H](C)O2)Oc2ccc(cc2Cl)[C@H]1O [vancomycin]
−0.398 to 0 log L/kg: VD values ([19]; reference number not given, probably ref 84, 85)
